From publication PMC11714206, “Massively Parallel Screening of Toll/Interleukin‐1 Receptor (TIR)‐Derived Peptides Reveals Multiple Toll‐Like Receptors (TLRs)‐Targeting Immunomodulatory Peptides” (Advanced Science, 2024)

Biological target: T1, MAL^TIR (Homo sapiens, UniProt P58753)
T1 construct: MAL (residues 79–221); 6xHis; made in house; host or cells: E. coli BL21 (DE3)
Assay: T‐Surf phage library (P8 and P3) selection against MAL^TIR, four rounds, NGS read counts
Assay type: binding
Details: for P3_MAL Rank (after) / P3_MAL Rank (before): P3 library; for P8_MAL Rank (after) / P8_MAL Rank (before): P8 library; for Population: 4th round of selection against MAL TIR, share of NGS reads
How it was run: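 Library of 190 946 TIR‐derived peptides on P8 or P3 was panned on immobilized TIR domain coated at 5 µg mL^−1, BSA‐blocked, 1 h binding at RT, PBS/0.5% Tween‐20 washes, HCl elution, TG1 amplification. Fourth‐round pools were PCR‐barcoded, sequenced (100 bp paired‐end, Phred ≥30), and peptides ranked by read counts.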

[1] = 4R selection against MAL, rank after grouping
[2] = 4R selection against MAL, rank before grouping
[3] = selection against MAL, rank after grouping
[4] = selection against MAL, rank before grouping
[5] = P8_MAL: rank by count after grouping
[6] = P8_MAL: rank by count before grouping
[7] = P3_MAL: rank by count after grouping
[8] = P3_MAL: rank by count before grouping
[9] = selection against MAL, rank by count after grouping
[10] = selection against MAL, rank by count before grouping
[11] = selection against MAL TIR, rank by count after grouping
[12] = selection against MAL TIR, rank by count before grouping
[13] = P3_MAL pool: P3 T-Surf phage library

T1 sequence (P58753 79-221): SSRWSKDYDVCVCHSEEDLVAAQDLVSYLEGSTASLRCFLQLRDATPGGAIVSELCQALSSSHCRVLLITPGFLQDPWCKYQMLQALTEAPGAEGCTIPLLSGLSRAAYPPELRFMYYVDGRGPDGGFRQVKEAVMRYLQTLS

## RGFLEPLRHHLQAKEQ
[1]
  P3_MAL Rank (after): 649
[2]
  P3_MAL Rank (before): 2355

## CFLQNLCYALTYRPAT
[1]
  P3_MAL Rank (after): 637
[2]
  P3_MAL Rank (before): 1215

## AFFGEQLVTGLAKRSS
[3]
  P8_MAL Rank (after): 568
[4]
  P8_MAL Rank (before): 1742

## RNIVAYPFQALANIGI
[5]
  Rank (after): 437
[6]
  Rank (before): 2252

## RHFAGLLYDRLTKTGV
[7]
  Rank (after): 414
[8]
  Rank (before): 2563

## WFFEPLVILIPRDTKV
[5]
  Rank (after): 411
[6]
  Rank (before): 1115

## GPDTRRKFISFLYKEL
[9]
  P3_MAL Rank (after): 683
[10]
  P3_MAL Rank (before): 1767

## WFNIRLVTVLDHVNDV
[3]
  P8_MAL Rank (after): 573
[4]
  P8_MAL Rank (before): 1391

## CVYRPSASLSGAAWR
[3]
  P3_MAL Rank (after): 568
[4]
  P3_MAL Rank (before): 1321

## RNLVAYLFQALETKGI
[5]
  Rank (after): 416
[6]
  Rank (before): 2243

## SLQYAHLRWLGIRAFL
[11]
  P8_MAL Rank (after): 206
[12]
  P8_MAL Rank (before): 2523

## TFLATLYNALAQAGIH
[5]
  Rank (after): 449
[6]
  Rank (before): 2620

## KTLAGLRCDHLFRLRL
[1]
  P3_MAL Rank (after): 639
[2]
  P3_MAL Rank (before): 3743

## TFLGAQHKTVVRAATH
[3]
  P8_MAL Rank (after): 524
[4]
  P8_MAL Rank (before): 2534

## NQWRNALTAAANQSGL
[7]
  Rank (after): 161
[8]
  Rank (before): 3383

## PNLRTNVLNYLMRPKT
[11]
  P3_MAL Rank (after): 266
[12]
  P3_MAL Rank (before): 2696

## RDFVAYLFQALANKGL
[1]
  P8_MAL Rank (after): 640
[2]
  P8_MAL Rank (before): 2171

## YLLLSVFQTIFARRTE
[11]
  P8_MAL Rank (after): 238
[12]
  P8_MAL Rank (before): 800

## SFFWNKLRYHLPAPQH
[11]
  P8_MAL Rank (after): 269
[12]
  P8_MAL Rank (before): 2441

## MSHLYQGLNNRGIFIF
[3]
  P3_MAL Rank (after): 527
[4]
  P3_MAL Rank (before): 2944

## LCFRESLKQLLRSNGR
[3]
  P8_MAL Rank (after): 535
[4]
  P8_MAL Rank (before): 2162

## AFLYPFLINLTHPTIP
[3]
  P8_MAL Rank (after): 512
[4]
  P8_MAL Rank (before): 1816

## SEFIQKITLGMNPKIG
[1]
  P8_MAL Rank (after): 673
[2]
  P8_MAL Rank (before): 2481

## AFLYSLLISLPETANI
[3]
  P8_MAL Rank (after): 543
[4]
  P8_MAL Rank (before): 1810

## AFFGEQVSPVLGKPTM
[5]
  Rank (after): 426
[6]
  Rank (before): 1748

## FLNFRGLDVRNYFLGH
[3]
  P8_MAL Rank (after): 560
[4]
  P8_MAL Rank (before): 1088

## NQWRNALTAAASLSGR
[11]
  P3_MAL Rank (after): 221
[12]
  P3_MAL Rank (before): 3364

## KNVRLARSVRKNGVP
[9]
  P3_MAL Rank (after): 697
[10]
  P3_MAL Rank (before): 3474

## SSFREDMWRRLELSQQ
[1]
  P3_MAL Rank (after): 658
[2]
  P3_MAL Rank (before): 3188

## WFYEPLVSLILRDTKL
[11]
  P8_MAL Rank (after): 236
[12]
  P8_MAL Rank (before): 1293

## HQAFWERLWAKMQAPI
[1]
  P3_MAL Rank (after): 659
[2]
  P3_MAL Rank (before): 2860

## AYLNTFLINLTHPTNF
[5]
  Rank (after): 149
[6]
  Rank (before): 1951

## RLQKWKEALHQIHSRV
[7]
  Rank (after): 189
[8]
  Rank (before): 2551

## LFFWASLNKLLRSDGR
[1]
  P8_MAL Rank (after): 648
[2]
  P8_MAL Rank (before): 2065

## AFLYTFLINDPSDQF
[11]
  P8_MAL Rank (after): 214
[12]
  P8_MAL Rank (before): 1836

## AFFWAQLKSVLGNPAR
[1]
  P8_MAL Rank (after): 605
[2]
  P8_MAL Rank (before): 1630

## AVRYTILINLTHTTNF
[5]
  Rank (after): 462
[6]
  Rank (before): 1955

## NQWRNALTAVANLSGW
[13]
  Population: 0.00451%

## YFLNFLLFSRPETDYI
[5]
  Rank (after): 457
[6]
  Rank (before): 1516

## PNLRTKGLNYLMRTKT
[13]
  Population: 0.00338%

## WFYEFLVFLILRDTKV
[11]
  P8_MAL Rank (after): 251
[12]
  P8_MAL Rank (before): 1143

## AFFWAQLQSMLGNPTM
[5]
  Rank (after): 138
[6]
  Rank (before): 1605

## KGLTEIADLKGKKCDR
[3]
  P3_MAL Rank (after): 529
[4]
  P3_MAL Rank (before): 3531

## RNFVAYLFQELANKGI
P8_MAL pool: P8 T-Surf phage library
  Population: 0.00463%

## KRISEQLRPALNVRRP
[1]
  P3_MAL Rank (after): 665
[2]
  P3_MAL Rank (before): 3633

## FLNFRAWMCVTIFWA
[9]
  P3_MAL Rank (after): 677
[10]
  P3_MAL Rank (before): 1176

## WFYERLVSLIMRDNIV
[1]
  P8_MAL Rank (after): 634
[2]
  P8_MAL Rank (before): 1183

## YLKWGYPGLWDRLRFA
[11]
  P3_MAL Rank (after): 212
[12]
  P3_MAL Rank (before): 1517

## YAFTGHLRRYLVQRGV
[13]
  Population: 0.00338%

## YFLHFLLCSRPETAYI
[11]
  P8_MAL Rank (after): 199
[12]
  P8_MAL Rank (before): 1496

## WFYERLLSRILRDTKV
[5]
  Rank (after): 119
[6]
  Rank (before): 1249

## WFYERRVSLILLLTIV
[9]
  P8_MAL Rank (after): 684
[10]
  P8_MAL Rank (before): 1253

## YNFISHLYDTLHRNRN
[11]
  P3_MAL Rank (after): 272
[12]
  P3_MAL Rank (before): 1578

## WFYERLVSLLLRATKV
[5]
  Rank (after): 170
[6]
  Rank (before): 1156

## KLRAWRDALRNIANIF
[7]
  Rank (after): 428
[8]
  Rank (before): 3626

## AFLYNFFNDLTHPTIY
[1]
  P8_MAL Rank (after): 582
[2]
  P8_MAL Rank (before): 1890

## AFFWAQVKSVLGNTTM
[11]
  P8_MAL Rank (after): 264
[12]
  P8_MAL Rank (before): 1603

## WFMMTFRTVLHHVHDV
[5]
  Rank (after): 425
[6]
  Rank (before): 1374

## AFFLAQLKSVLGKPTM
[3]
  P8_MAL Rank (after): 533
[4]
  P8_MAL Rank (before): 1578

## FMSHLYQGLKNRGI
[7]
  Rank (after): 165
[8]
  Rank (before): 499

## NQWRNALTAAANLSVC
[1]
  P3_MAL Rank (after): 610
[2]
  P3_MAL Rank (before): 3370

## YAFTGHLHRYLMPRGV
[9]
  P3_MAL Rank (after): 698
[10]
  P3_MAL Rank (before): 1420

## KMQQWQDALYEAANLS
[9]
  P3_MAL Rank (after): 691
[10]
  P3_MAL Rank (before): 3654

## AFLCDQLSTLMDPPTF
[3]
  P8_MAL Rank (after): 578
[4]
  P8_MAL Rank (before): 1805

## WFYERLVSLILRYTKE
[11]
  P8_MAL Rank (after): 222
[12]
  P8_MAL Rank (before): 1197

## DWFLSHLRHHLQAKDH
[7]
  Rank (after): 183
[8]
  Rank (before): 779

## TFLGFLYIALVQAGFL
[9]
  P8_MAL Rank (after): 724
[10]
  P8_MAL Rank (before): 2549

## AFLYTLLNNVLRNPTI
[3]
  P8_MAL Rank (after): 556
[4]
  P8_MAL Rank (before): 1888

## LKVESWRQALKQRAL
[3]
  P3_MAL Rank (after): 483
[4]
  P3_MAL Rank (before): 2283

## AFFWAQLKSELGNPSM
[3]
  P8_MAL Rank (after): 515
[4]
  P8_MAL Rank (before): 1644

## QFFWDQLKSILGDTRF
[3]
  P8_MAL Rank (after): 519
[4]
  P8_MAL Rank (before): 2433

## WFYERMVRLILRDTKV
[11]
  P8_MAL Rank (after): 247
[12]
  P8_MAL Rank (before): 1291

## PNLRTKGLNYRMRTKT
[7]
  Rank (after): 415
[8]
  Rank (before): 2736

## RGFLSHLRYHLPAPQH
[7]
  Rank (after): 129
[8]
  Rank (before): 333

## RFWERLRYMMPDSSL
[7]
  Rank (after): 449
[8]
  Rank (before): 2320

## MSHLYQGLKNRGIFT
[7]
  Rank (after): 117
[8]
  Rank (before): 254

## SSFREGIWRLLELRKK
[7]
  Rank (after): 394
[8]
  Rank (before): 3183

## KWFLAKLIYALSRNPH
[9]
  P3_MAL Rank (after): 758
[10]
  P3_MAL Rank (before): 3484

## NQWHNALAAAANLLGL
[7]
  Rank (after): 473
[8]
  Rank (before): 3418

## SSFRKGLCRLLELSKK
[7]
  Rank (after): 463
[8]
  Rank (before): 3196

## LQNQWKLALTKVAKLE
[11]
  P3_MAL Rank (after): 236
[12]
  P3_MAL Rank (before): 2160

## AFCIRRLRVKALRFS
[3]
  P3_MAL Rank (after): 569
[4]
  P3_MAL Rank (before): 1783

## AFLYTFLKNLMRKPTF
[5]
  Rank (after): 422
[6]
  Rank (before): 1874
